Values joined by “and” are separate entries in the source; they are usually repeats but may differ in a detail not shown here. Equal values may be shown once. Toxic doses and inconclusive results are not listed.
Test system: BDF1 mice, intracerebral L1210 leukemia, survival T/C
Assay: NCI In Vivo Anticancer Drug Screen. Data for tumor model L1210 Leukemia (intracerebral) in B6D2F1 (BDF1) mice
Conditions: higher = longer survival
Summary of the method: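 Antitumour effect is judged in mice with transplanted tumour by comparing survival of treated (T) against vehicle-dosed (C) groups as T/C.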

O=C1CN=C(c2ccc[nH]2)c2cc(Cl)ccc2N1
T/C (endpoint: mean survival time, dose: 248.0 mg/kg/injection, schedule: Q01DX009 (sc), vehicle: Klucel (hydroxypropylcellulose) (HPC)): 103 % of control | T/C (endpoint: mean survival time, dose: 377.0 mg/kg/injection, schedule: Q01DX009 (sc), vehicle: Klucel (hydroxypropylcellulose) (HPC)): 108 % of control | T/C (endpoint: mean survival time, dose: 571.0 mg/kg/injection, schedule: Q01DX009 (sc), vehicle: Klucel (hydroxypropylcellulose) (HPC)): 100 % of control | T/C (endpoint: mean survival time, dose: 858.0 mg/kg/injection, schedule: Q01DX009 (sc), vehicle: Klucel (hydroxypropylcellulose) (HPC)): 108 % of control | T/C (endpoint: mean survival time, dose: 1300.0 mg/kg/injection, schedule: Q01DX009 (sc), vehicle: Klucel (hydroxypropylcellulose) (HPC)): 122 % of control | T/C (endpoint: median survival time, dose: 1.75 mg/kg/injection, schedule: Q01DX009 (ip), vehicle: other): 102 % of control | T/C (endpoint: median survival time, dose: 3.15 mg/kg/injection, schedule: Q01DX009 (ip), vehicle: other): 102 % of control | T/C (endpoint: median survival time, dose: 6.3 mg/kg/injection, schedule: Q01DX009 (ip), vehicle: other): 106 % of control | T/C (endpoint: median survival time, dose: 12.5 mg/kg/injection, schedule: Q01DX009 (ip), vehicle: other): 102 % of control | T/C (endpoint: median survival time, dose: 25.0 mg/kg/injection, schedule: Q01DX009 (ip), vehicle: other): 110 % of control

O=NN(CCCl)C(=O)NC1CCSCC1
T/C (endpoint: mean survival time, dose: 3.0 mg/kg/injection, schedule: Q01DX001 (ip), vehicle: carboxymethylcellulose (CMC)): 114 % of control | T/C (endpoint: mean survival time, dose: 5.0 mg/kg/injection, schedule: Q01DX001 (ip), vehicle: carboxymethylcellulose (CMC)): 152 % of control and 154 % of control | T/C (endpoint: mean survival time, dose: 6.0 mg/kg/injection, schedule: Q01DX001 (ip), vehicle: carboxymethylcellulose (CMC)): 161 % of control | T/C (endpoint: mean survival time, dose: 8.0 mg/kg/injection, schedule: Q01DX001 (ip), vehicle: carboxymethylcellulose (CMC)): 203 % of control and 208 % of control | T/C (endpoint: mean survival time, dose: 9.0 mg/kg/injection, schedule: Q01DX001 (ip), vehicle: carboxymethylcellulose (CMC)): 217 % of control | T/C (endpoint: mean survival time, dose: 12.0 mg/kg/injection, schedule: Q01DX001 (ip), vehicle: carboxymethylcellulose (CMC)): 245 % of control and 316 % of control | T/C (endpoint: mean survival time, dose: 14.0 mg/kg/injection, schedule: Q01DX001 (ip), vehicle: carboxymethylcellulose (CMC)): 286 % of control | T/C (endpoint: mean survival time, dose: 18.0 mg/kg/injection, schedule: Q01DX001 (ip), vehicle: carboxymethylcellulose (CMC)): 230 % of control | T/C (endpoint: mean survival time, dose: 21.0 mg/kg/injection, schedule: Q01DX001 (ip), vehicle: carboxymethylcellulose (CMC)): 155 % of control | T/C (endpoint: mean survival time, dose: 27.0 mg/kg/injection, schedule: Q01DX001 (ip), vehicle: carboxymethylcellulose (CMC)): 94 % of control | T/C (endpoint: mean survival time, dose: 32.0 mg/kg/injection, schedule: Q01DX001 (ip), vehicle: carboxymethylcellulose (CMC)): 93 % of control

C=CCNC(=O)NCC=C
T/C (endpoint: mean survival time, dose: 25.0 mg/kg/injection, schedule: Q01DX009 (ip), vehicle: saline): 101 % of control | T/C (endpoint: mean survival time, dose: 50.0 mg/kg/injection, schedule: Q01DX009 (ip), vehicle: saline): 103 % of control | T/C (endpoint: mean survival time, dose: 100.0 mg/kg/injection, schedule: Q01DX009 (ip), vehicle: saline): 97 % of control | T/C (endpoint: mean survival time, dose: 200.0 mg/kg/injection, schedule: Q01DX009 (ip), vehicle: saline): 105 % of control

CC(C)(C)C1CCC(NC(=O)N(CCCl)N=O)CC1 (configuration not stated)
T/C (endpoint: mean survival time, dose: 177.0 mg/kg/injection, schedule: Q01DX001 (ip), vehicle: other): 170 % of control | T/C (endpoint: mean survival time, dose: 250.0 mg/kg/injection, schedule: Q01DX001 (ip), vehicle: other): 156 % of control and 158 % of control | T/C (endpoint: mean survival time, dose: 354.0 mg/kg/injection, schedule: Q01DX001 (ip), vehicle: other): 247 % of control | T/C (endpoint: mean survival time, dose: 375.0 mg/kg/injection, schedule: Q01DX001 (ip), vehicle: other): 196 % of control and 210 % of control | T/C (endpoint: mean survival time, dose: 472.0 mg/kg/injection, schedule: Q01DX001 (ip), vehicle: other): 155 % of control | T/C (endpoint: mean survival time, dose: 500.0 mg/kg/injection, schedule: Q01DX001 (ip), vehicle: other): 186 % of control and 201 % of control | T/C (endpoint: mean survival time, dose: 708.0 mg/kg/injection, schedule: Q01DX001 (ip), vehicle: other): 86 % of control | T/C (endpoint: mean survival time, dose: 750.0 mg/kg/injection, schedule: Q01DX001 (ip), vehicle: other): 152 % of control

C[C@]12C=CC(=O)C=C1CC[C@@H]1[C@@H]2C(=O)C[C@@]2(C)[C@H]1CC[C@]2(O)C(=O)CO
T/C (endpoint: mean survival time, dose: 100.0 mg/kg/injection, schedule: Q01DX Z (sc), vehicle: steriod suspending solution): 97 % of control | T/C (endpoint: mean survival time, dose: 120.0 mg/kg/injection, schedule: Q01DX001 (sc), vehicle: steriod suspending solution): 102 % of control | T/C (endpoint: mean survival time, dose: 180.0 mg/kg/injection, schedule: Q01DX001 (sc), vehicle: steriod suspending solution): 103 % of control | T/C (endpoint: mean survival time, dose: 200.0 mg/kg/injection, schedule: Q01DX Z (sc), vehicle: steriod suspending solution): 109 % of control | T/C (endpoint: mean survival time, dose: 240.0 mg/kg/injection, schedule: Q01DX001 (sc), vehicle: steriod suspending solution): 103 % of control | T/C (endpoint: mean survival time, dose: 250.0 mg/kg/injection, schedule: Q01DX Z (sc), vehicle: steriod suspending solution): 112 % of control | T/C (endpoint: mean survival time, dose: 375.0 mg/kg/injection, schedule: Q01DX Z (sc), vehicle: steriod suspending solution): 102 % of control | T/C (endpoint: mean survival time, dose: 500.0 mg/kg/injection, schedule: Q01DX Z (sc), vehicle: steriod suspending solution): 97 % of control | T/C (endpoint: mean survival time, dose: 750.0 mg/kg/injection, schedule: Q01DX Z (sc), vehicle: steriod suspending solution): 112 % of control
